Reference: patent US11401278B2, “Macrocyclic indole derivatives” (The Broad Institute, Inc., priority 2017, dated 2022)
Structures can show the parent of a compound that is named as a salt. Where two headings read alike, the source gives them in different places.

Tests used:
[1] = amine bond
[2] = target: MCL-1 (Homo sapiens (Human), UniProt Q07820, K194A/K197A/R201A); assay: Protein-protein interaction assay MCL-1/Noxa BH3 peptide (MCL-1 assay, TR-FRET); type: binding; settings: MBP-MCL-1 / Noxa BH3 peptide, median
Sequence of MCL-1 (Q07820 whole entry K194A/K197A/R201A, looked up): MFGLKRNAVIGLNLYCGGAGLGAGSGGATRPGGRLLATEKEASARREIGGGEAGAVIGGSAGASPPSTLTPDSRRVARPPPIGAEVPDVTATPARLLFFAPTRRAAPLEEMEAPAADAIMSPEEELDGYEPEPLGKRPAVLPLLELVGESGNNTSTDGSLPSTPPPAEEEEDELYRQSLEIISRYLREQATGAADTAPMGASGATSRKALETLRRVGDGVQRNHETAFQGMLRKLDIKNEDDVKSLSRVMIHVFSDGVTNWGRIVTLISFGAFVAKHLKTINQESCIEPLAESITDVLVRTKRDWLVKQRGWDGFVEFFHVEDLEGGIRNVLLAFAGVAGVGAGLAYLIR
Experimental: Protein-Protein Interaction Assay: MCL-1/Noxa BH3 Peptide (MCL-1 Assay)
The dose-dependent inhibition by the compounds described in this invention of the interaction between MCL-1 and the BH3 domain of Noxa (both human) was determined using a steady state binding competition assay with time-resolved fluorescence energy transfer (TR-FRET) readout. For that purpose MCL-1 (amino acids 173-329, N-terminal fused to Maltose Binding Protein (MBP) SEQ ID 1) and a synthetic Noxa BH3-derived peptide of sequence Biotin-PEG2-PEG2-PAELEVE-Nva-ATQLRRFGDKLNFRQKLL-amide (SEQ ID 2) served as protein receptor and tracer ligand respectively. The MBP-MCL-1 was purchased from Beryllium (Bedford, Mass., USA). The expression and purification of this protein construct has been described elsewhere (DOI:10.1371/journal.pone.0125010). The Noxa BH3-derived peptide can be obtained from e.g. Biosyntan (Berlin, Germany).
In the assay 11 different concentrations of each compound (0.1 nM, 0.33 nM, 1.1 nM, 3.8 nM, 13 nM, 44 nM, 0.15 μM, 0.51 μM, 1.7 μM, 5.9 μM and 20 μM) were typically measured as duplicates in the same microtiter plate. For that, 100-fold concentrated DMSO solutions were prepared by serial dilutions (1:3.4) of a 2 mM stock solution in a clear, 384-well microtiter plate (Greiner Bio-One, Frickenhausen, Germany). From there, 50 nl were transferred in a dark test plate (Greiner Bio-One, Frickenhausen, Germany). The assay was initiated by addition of 2 μl of a 2.5-fold concentrated MBP-MCL-1 solution (usually for a 1 nM end concentration in 5 μl reaction volume) in aqueous assay buffer [50 mM Tris/HCl pH 7, 100 mM sodium chloride (NaCl), 50 mM potassium fluoride (KF), 0.005% Tween-20, 2 mM DTT, 0.1% bovine gamma globulin (BGG)] to the compounds in the assay plate. This was followed by a 10-minute incubation step at 22° C. for pre-equilibration of the putative complex between MBP-MCL-1 and the compounds. After that, 3 μl of a 1.67-fold concentrated solution (in assay buffer) consisting of Noxa BH3-derived peptide (1 nM end concentration) and TR-FRET detection reagents [1.67 nM anti-MBP-Eu cryptate and 1.67 nM streptavidin-XL665 (both from Cisbio Bioassays, Codolet, France)], were added.
The mixture was incubated in the dark for one hour at 22° C. and then overnight at 4° C. The formation of MCL-1/Noxa complexes was determined by measuring the resonance energy transfer of the anti-MBP-Eu-cryptate antibody to the streptavidin-XL665 present in the reaction. For that purpose, the fluorescence emission at 620 nm and 665 nm after excitation at 330-350 nm was measured in a TR-FRET measuring instrument, for instance a Rubystar or a Pherastar (both from BMG Lab Technologies, Offenburg, Germany) or a Viewlux (Perkin-Elmer). The ratio of the emission at 665 nm and at 622 nm was used as indicator of the amount of MCL-1/NOXA complexes present.
The resulting data (ratio) were normalized, taking 0% inhibition as the mean value of control measurements (usually 32 data points) where all reagents were included. In this case 50 nl DMSO were used instead of compounds. A 100% inhibition corresponded to the mean value of control measurements (usually 32 data points) where all reagents except MCL-1 were included. IC50 values were determined by regression analysis based on a 4 parameter equation (minimum, maximum, IC50, Hill; Y=Max+(Min−Max)/(1+(X/IC50)^HiII) using the Screener Software (Genedata).

[3] = test system: SUDHL5; assay: Induction of caspase-3/7 activity (Assay 4), SUDHL5; type: cell-based; settings: caspase-3/7 induction, 3 hours, median
Experimental: (§1) Cellular Assays Assay 4 Induction of Caspase-3/7 Activity Upon Treatment of Cells with Selected Compounds
(§2) The BH3-domain of MCL-1 sequesters pro-apoptotic proteins, thereby inhibiting apoptosis. In contrast, MCL-1 inhibitors are expected to antagonize this effect leading to an increase in apoptosis, which can be determined by measuring the activity of caspase-3/7.
(§3) The activity of caspase-3/7 was determined in DLBCL (Diffuse large B-cell lymphoma) cell lines (SUDHL5 and SUDHL10) upon treatment with different compounds, using the Caspase-Glo® 3/7 reagent from Promega (G8092).
(§4) Rim wells were excluded. The cells were incubated for 3 hours in a humidified incubator at 37° C.
(§5) For the evaluation of the results, the background measured with “medium-only” was subtracted from all other values. […] The Bella DRC Master Sheet was used to calculate EC50s, with fixed C0=1 and CI=plateau/max induction for the reference compound.

[4] = test system: SUDHL10; assay: Induction of caspase-3/7 activity (Assay 4), SUDHL10; type: cell-based; settings: caspase-3/7 induction, 3 hours, median
Experimental: as §1, §2, §3, §4, §5

[5] = test system: SUDHL5; assay: Antiproliferation assay (Assay 7), SUDHL5; type: cell-based; settings: CellTiter-Glo, 72 hours, median, read-out: Antiproli SUDHL5 [M] (median) IC50
Experimental: (§6) Assessment of the Anti-Proliferative Effect of Compounds in Different Cell Lines
(§7) The impact of compounds on the proliferation of different cell lines was assessed using the CellTiter-Glo® Luminescent Cell Viability reagent from Promega (G7573).
(§8) In parallel, cells were plated in a reference (day 0) plate for time zero determination.
(§9) Rim wells were excluded. The cells were incubated for 72 hours in a humidified incubator at 37° C. The day 0 plate was measured by adding 30 μL/well of CTG solution (CellTiter-Glo® Luminescent Cell Viability reagent, Promega G7573) to time zero wells in the reference plate followed by a 10 minutes incubation and luminescence reading at 0.1 ms. using the PHERAstar FS microplate reader (BMG Labtech).
(§10) After 72 hours incubation, the treated plates were measured in the same way as the day 0 plate mentioned above.

[6] = test system: AMO-1; assay: Antiproliferation assay (Assay 7), AMO-1; type: cell-based; settings: CellTiter-Glo, 72 hours, several values per example, read-out: Antiproli AMO-1 [M] IC50
Experimental: as §6, §7, §8, §9, §10

[7] = test system: HMC-1-8; assay: Antiproliferation assay (Assay 7), HMC-1-8; type: cell-based; settings: CellTiter-Glo, 72 hours, several values per example, read-out: Antiproli HMC-1-8 [M] IC50
Experimental: as §6, §7, §8, §9, §10

[8] = test system: SUDHL5; assay: Induction of cytotoxicity (Assay 6), SUDHL5; settings: read-out: Cytotox SUDHL5 [M] (median) IC50, CellTiter-Glo, 5 hours, SUDHL5
Experimental: Assay 6 Induction of Cytotoxicity Upon Treatment of Cells with Selected Compounds
Therefore, cytotoxicity assays were run in parallel in SUDHL5 and SUDHL10 cells.
The different cell lines were plated in culture medium (RPMI 1640 [GIBCO #22400-089] supplemented with 10% Fetal Bovine Serum) at a density of 3,300 cells in 30 μl/well in a sterile, solid black, flat bottom, polystyrene, TC-treated 384-well microplate (Corning #3571) using Multidrop Combi Reagent Dispenser. As a control, medium without cells was also added to the plate. Cells were incubated in a humidified incubator at 37° C. overnight. On the next day, the cells were treated with compounds (stock solution, 10 mM in DMSO) using the HP D300 Digital Dispenser in a concentration range of 3.3×10e-5 M (33 μM) to 5×10e-9 M (5 nM) in a single-dot curve with at least 16 dilutions and a DMSO concentration of 0.33%. Rim wells were excluded. The cells were incubated for 5 hours in a humidified incubator at 37° C. After this incubation, 30 μl of CellTiter-Glo® Luminescent Cell Viability reagent (Promega, G7573) was added to each well using the Multidrop Combi Reagent Dispenser, followed by 15 minutes incubation on a shaker at room temperature. Finally, luminescence was read at 0.1 ms, with a gain of 3000 using the PHERAstar FS microplate reader (BMG Labtech).

[9] = test system: SUDHL10; assay: Induction of cytotoxicity (Assay 6), SUDHL10; settings: read-out: Cytotox SUDHL10 [M] (median) IC50, CellTiter-Glo, 5 hours, SUDHL10

Structure (SMILES): CCOC(=O)c1c(CCCOc2cccc3ccccc23)c2cccc3c2n1CCCS(=O)(=O)N(CCN1CCCCC1)Cc1nn(C)c(CC)c1-3
- ring closure, yield of all isomers ([1]; from CCOC(=O)c1[nH]c2c(-c3c(CN(CCN4CCCCC4)S(=O)(=O)CCCCl)nn(C)c3CC)cccc2c1CCCOc1cccc2ccccc12, NaH, DMF, 25.0 mM, 60.0 °C, 21.0 h): 69%

Structure (SMILES): CCOC(=O)c1c(CCCOc2cccc3cc(F)ccc23)c2ccc(Cl)c3c2n1CCCS(=O)(=O)N(CCN1CCOCC1)Cc1nn(C)c(CC)c1-3
- ring closure, yield of all isomers ([1]; from CCOC(=O)c1[nH]c2c(-c3c(CN(CCN4CCOCC4)S(=O)(=O)CCCCl)nn(C)c3CC)c(Cl)ccc2c1CCCOc1cccc2cc(F)ccc12, cesium carbonate, acetonitrile, 50.3 mM, 40.0 °C, 48.0 h): 90.3%

Structure (SMILES): CCOC(=O)c1c(CCCO[Si](C)(C)C(C)(C)C)c2ccc(Cl)c3c2n1CCCS(=O)(=O)N(C)Cc1nn(C)c(CC)c1-3
- ring closure, yield of all isomers ([1]; from CCOC(=O)c1[nH]c2c(-c3c(CN(C)S(=O)(=O)CCCCl)nn(C)c3CC)c(Cl)ccc2c1CCCO[Si](C)(C)C(C)(C)C, Cs2CO3, MeCN, 50.0 mM, 60.0 °C, 18.0 h): 74.6%

Structure (SMILES): CCOC(=O)c1c(CCCOc2cccc3cc(F)ccc23)c2ccc(Cl)c3c2n1CCCS(=O)(=O)N(Cc1ccc(OC)cc1OC)Cc1nn(C)c(C)c1-3
- ring closure, yield of all isomers ([1]; from CCOC(=O)c1[nH]c2c(-c3c(CN(Cc4ccc(OC)cc4OC)S(=O)(=O)CCCCl)nn(C)c3C)c(Cl)ccc2c1CCCOc1cccc2cc(F)ccc12, cesium carbonate, acetonitrile, 51.5 mM, 60.0 °C, 16.0 h): 48%

Structure (SMILES): CCOC(=O)c1c(CCCOc2cccc3ccccc23)c2cccc3c2n1CCCS(=O)(=O)N(C)C(CCN1CCOCC1)c1nn(C)c(C)c1-3 (stereo not drawn)
- ring closure, yield of all isomers ([1]; from CCOC(=O)c1[nH]c2c(-c3c(C(CCN4CCOCC4)N(C)S(=O)(=O)CCCCl)nn(C)c3C)cccc2c1CCCOc1cccc2ccccc12, Cs2CO3, acetonitrile, 49.6 mM, 60.0 °C, 48.0 h): 99.7%

Structure (SMILES): CCOC(=O)c1c(CCCO[Si](C)(C)C(C)(C)C)c2ccc(F)c3c2n1CCCS(=O)(=O)N(C)Cc1nn(C)c(C)c1-3
- ring closure, yield of all isomers ([1]; from CCOC(=O)c1[nH]c2c(-c3c(CN(C)S(=O)(=O)CCCCl)nn(C)c3C)c(F)ccc2c1CCCO[Si](C)(C)C(C)(C)C, Cs2CO3, NaI, acetonitrile, 87.3 mM, 60.0 °C, 240.0 h): 47.7%

Structure (SMILES): CCOC(=O)c1c(CCCO[Si](C)(C)C(C)(C)C)c2ccc(F)c3c2n1CCCS(=O)(=O)N(C)Cc1nn(C)c(CC)c1-3
- ring closure, yield of all isomers ([1]; from CCOC(=O)c1[nH]c2c(-c3c(CN(C)S(=O)(=O)CCCCl)nn(C)c3CC)c(F)ccc2c1CCCO[Si](C)(C)C(C)(C)C, Cs2CO3, acetonitrile, 50.0 mM, 60.0 °C, 72.0 h): 55.2%

Structure (SMILES): CCOC(=O)c1c(CCCOc2cccc3ccccc23)c2cccc3c2n1CCCS(=O)(=O)N(C)C(C)c1nn(C)c(CC)c1-3 (racemic)
- ring closure, yield of all isomers ([1]; from CCOC(=O)c1[nH]c2c(-c3c(C(C)N(C)S(=O)(=O)CCCCl)nn(C)c3CC)cccc2c1CCCOc1cccc2ccccc12, Cs2CO3, MeCN, 50.0 mM, 60.0 °C, 18.0 h): 81.9%

Structure (SMILES): CCOC(=O)c1c(CCCO[Si](C)(C)C(C)(C)C)c2ccc(Cl)c3c2n1CCCS(=O)(=O)N(C1CC1)Cc1nn(C)c(C)c1-3
- ring closure, yield of all isomers ([1]; from CCOC(=O)c1[nH]c2c(-c3c(CN(C4CC4)S(=O)(=O)CCCCl)nn(C)c3C)c(Cl)ccc2c1CCCO[Si](C)(C)C(C)(C)C, Cs2CO3, acetonitrile, 50.4 mM, 60.0 °C, 48.0 h): 60%

Structure (SMILES): CCOC(=O)c1c(CCCOc2cccc3cc(F)ccc23)c2ccc(Cl)c3c2n1CCCS(=O)(=O)N(C1CC1)Cc1nn(C)c(CC)c1-3
- ring closure, yield of all isomers ([1]; from CCOC(=O)c1[nH]c2c(-c3c(CN(C4CC4)S(=O)(=O)CCCCl)nn(C)c3CC)c(Cl)ccc2c1CCCOc1cccc2cc(F)ccc12, cesium carbonate, acetonitrile, 47.2 mM, 60.0 °C, 16.0 h): 91%

Structure (SMILES): CCOC(=O)c1c(CCCOc2cccc3cc(F)ccc23)c2ccc(Cl)c3c2n1CCCS(=O)(=O)N(C)C(CCN1CCOCC1)c1nn(C)c(CC)c1-3 (racemic)
- ring closure, yield of all isomers ([1]; from CCOC(=O)c1[nH]c2c(-c3c(C(CCN4CCOCC4)N(C)S(=O)(=O)CCCCl)nn(C)c3CC)c(Cl)ccc2c1CCCOc1cccc2cc(F)ccc12, cesium carbonate, acetonitrile, 49.5 mM, 60.0 °C, 48.0 h): 44.9%

Structure (SMILES): CCOC(=O)c1c(CCCOc2cccc3cc(F)ccc23)c2ccc(Cl)c3c2n1CCCS(=O)(=O)N(C)CCC(N1CCOCC1)c1nn(C)c(C)c1-3 (stereo not drawn)
- ring closure, yield of all isomers ([1]; from CCOC(=O)c1[nH]c2c(-c3c(C(CCN(C)S(=O)(=O)CCCCl)N4CCOCC4)nn(C)c3C)c(Cl)ccc2c1CCCOc1cccc2cc(F)ccc12, Cs2CO3, acetonitrile, 40.7 mM, 60.0 °C, 48.0 h): 63.7%

Structure (SMILES): CCc1c2c(nn1C)CN(C1CC1)S(=O)(=O)CCCn1c(C(=O)O)c(CCCOc3cccc4cc(F)ccc34)c3ccc(Cl)c-2c31 (single isomer, unassigned; enantiomer 2) [Example 55, (+)-4-chloro-14-cyclopropyl-3-ethyl-7-{3-[(6-fluoronaphthalen-1-yl)oxy]propyl}-2-methyl-13,13-dioxo-10,11,12,13,14,15-hexahydro-2H-13lambda^6-pyrazolo[3′,4′:4,5][1,2,8]thiadiazacycloundecino[6,7,8-hi]indole-8-carboxylic acid N-ethylethanamine Salt (Enantiomer 2)]
- IC50 [2]: 0.016 µM
- EC50 [3]: 8.9 µM
- EC50 [4]: 13 µM
- IC50 [5]: 1.1e-05 M
- IC50 [6]: > 3.3e-05 M
- IC50 [7]: 2.1e-05 M
- IC50 [8]: 8.2e-06 M
- IC50 [9]: 1.3e-05 M

Structure (SMILES): CCOC(=O)c1c(CCCOc2cccc3cc(F)ccc23)c2ccc(Cl)c3c2n1CCCS(=O)(=O)N(C)C(CCC1CCOCC1)c1nn(C)c(CC)c1-3 (racemic)
- ring closure, yield of all isomers ([1]; from CCOC(=O)c1[nH]c2c(-c3c(C(CCC4CCOCC4)N(C)S(=O)(=O)CCCCl)nn(C)c3CC)c(Cl)ccc2c1CCCOc1cccc2cc(F)ccc12, cesium carbonate, acetonitrile, 34.4 mM, 60.0 °C, 48.0 h): 77%
